Experimental data from patent US20250000952A1, “POLYPEPTIDE BASED ON RECEPTOR-INTERACTING PROTEIN KINASE-3 METHYLATION MODIFICATION AND APPLICATION THEREOF IN CELL NECROPTOSIS-RELATED DISEASES” (Air Force Medical University of the People's Liberation Army, priority 2023, published 2025).
“Also recorded” adds a separate entry of the source.

Key:
mouse L929 cells = test: Membrane penetrating experiment (fluorescence microscopy of FITC-labeled polypeptide); type: cell-based; details: 20 μM polypeptide, 24 hours
Procedure: Under the condition of necroptosis activation, it is observed whether the symmetrical dimethyl modified polypeptide fragment is capable of reducing the necroptosis and protecting cells from death. 20 μM polypeptide is added to mouse L929 cells for 24 hours, and the efficiency of polypeptide entering the target cells is analyzed by fluorescence microscope, with the scale of 275 μm, and the results are shown in FIG. 1A-FIG. 1B.

mouse fibroblast L929 = test: Necroptosis stimulation experiment, cell morphology after TNF-α + Z-VAD; type: cell-based; details: L929, TNF-α (20 ng/mL)+Z-VAD (20 μM), polypeptide 20 μM, compared with TAT-mRIP3
Procedure: The necroptosis induced by TNF-α (20 ng/mL)+Z-VAD (20 μM) is in mouse fibroblast L929, and polypeptide (20 μM) is added to intervene. After 12 hours treatment, the morphological changes of the cell are analyzed: Dimethyl sulfoxide (DMSO) is used as control group); the scale is 20 μm.
After 12 hours, the necroptosis of the cells is stimulated.

pRIP1, pRIP3 and pMLKL = test: Protein detection of necroptosis marker molecules after TNF-α + Z-VAD; type: cell-based, mouse; details: L929, TNF-α (20 ng/ml)+Z-VAD (20 μM), peptide 10 μM, 20 μM and 50 μM, 12 hours
Procedure: Furthermore, the necroptosis reaction in cells is detected. Mouse fibroblast L929 is treated with the classic cell necroptosis inducer TNF-α (20 ng/ml)+Z-VAD (20 μM), and at the same time, the peptides TAT (20 μM), TAT-mRIP3-WT and TAT-mRIP3-SDMA (10, 20 and 50 μM) are added. Cell samples are collected for protein detection after 12 hours.

Prmt5^iIEC-KO mice = test: Survival (lifetime) analysis of tamoxifen-induced Prmt5 knockout mice; type: in vivo, mouse; details: tamoxifen 75 mg/kg, polypeptide 10 mg/kg intraperitoneally once a day until death, ** p<0.01
Procedure: Tamoxifen-induced mouse intestinal epithelial cell-specific gene knockout mice (Prmt5^iIEC-KO) are used. Tamoxifen is given (75 mg/kg) to mice at age of 8 weeks to induce Prmt5 gene knockout and cell necroptosis (intraperitoneal injection, once a day, for 5 days). Using Prmt5^iIEC-KO, while tamoxifen is injected to induce Prmt5 gene knockout, mice are injected with different types and concentrations of peptides intraperitoneally, and the survival cycle of mice is analyzed, ** p<0.01. Mice are injected intraperitoneally with 10 mg/kg polypeptide once a day until the mice die.

[1] = tested on: intestinal tissues of Prmt5^iIEC-KO mice; test: HE histological analysis of mouse intestine; type: in vivo; details: compared with TAT and unmodified (TAT-mRIP3) polypeptide group

TAT-mRIP3-SDMA: GRKKRRQRRRPQQAQFGRG (SDMA) GWQPFHK; cell-penetrating peptide TAT connected to mouse RIP3 peptide with symmetric di-methylated arginine 479
efficiency of polypeptide entering the target cells (fluorescence intensity) (mouse L929 cells): capable of entering mouse lung fibroblast L929
protection against necroptosis / cell death (cell morphology) (mouse fibroblast L929): reducing cell death; also recorded: obvious protective effect
expression levels of pRIP1, pRIP3 and pMLKL (pRIP1, pRIP3 and pMLKL): decreasing the expression levels; also recorded: lower than control group
lifetime of mice (Prmt5^iIEC-KO mice): significantly prolonged
intestinal tissue necrosis and intestinal cavity structure (HE staining) [1]: significant protective effect
